Laboratory results taken from publication PMC9832347 (2023).

System: Probe DNA / complementary DNA (porcine) hybrid (DNA, duplex) CTGATAGTAGATTTGTGATGACCGTAGCCC/CTACGGTCATCACAAATCTACTATCAG
Assay: differential pulse voltammetry, redox indicator on DNA electrode
Settings: 30 μM 2b mixed with complementary DNA 1 × 10^-8 M; buffer wash; peak 1.45 μA; qualitative

binding: yes
Structure (SMILES): CC1=NCCNC(C)(C)CC(C)=NCCNC(C)(C)C1.[Cu+2]
